Results taken from patent US20240000806A1, “METHODS AND MATERIALS FOR INHIBITING CB1 ACTIVITY” (University of Pittsburgh - Of the Commonwealth System of …, priority 2020, published 2024).

Each compound was assayed against CB1 (CNR1) (Homo sapiens, UniProt P21554) (assay: cAMP CNR1 Hunter cell line antagonist assay (CB1 assay)). Details: antagonist mode, cAMP CNR1 Hunter cells, EC80 agonist; read-out: CB1 assay, Efficacy (IC50).
Format: cell-based
Description: cAMP CNR1 Hunter cell line (Eurofins DiscoveryX) were expanded from freezer stocks and seeded in a total volume of 20 μL into white walled, 384-well microplates and incubated at 37° C. for the appropriate time prior to testing. For antagonist determination, cell media was aspirated from cells and replaced with 10 μL 1:1 HBSS/Hepes:cAMP XS+Ab reagent. 5 μL of 4× compound was added to the cells and incubated at 37° C. for 30 minutes. 5 μL of 4× EC80 agonist was added to cells and incubated at 37° C. for 30 minutes. After appropriate compound incubation, assay signal was generated through incubation with 20 μL cAMP XS+ED/CL lysis cocktail for one hour followed by incubation with 20 μL cAMP XS+EA reagent for three hours at room temperature. Microplates were read following signal generation with a PerkinElmer Envision™ instrument for chemiluminescent signal detection. Compound activity (IC50) was analyzed using CBIS data analysis suite (ChemInnovation, CA).

Sequence of CB1 (CNR1) (P21554 whole entry): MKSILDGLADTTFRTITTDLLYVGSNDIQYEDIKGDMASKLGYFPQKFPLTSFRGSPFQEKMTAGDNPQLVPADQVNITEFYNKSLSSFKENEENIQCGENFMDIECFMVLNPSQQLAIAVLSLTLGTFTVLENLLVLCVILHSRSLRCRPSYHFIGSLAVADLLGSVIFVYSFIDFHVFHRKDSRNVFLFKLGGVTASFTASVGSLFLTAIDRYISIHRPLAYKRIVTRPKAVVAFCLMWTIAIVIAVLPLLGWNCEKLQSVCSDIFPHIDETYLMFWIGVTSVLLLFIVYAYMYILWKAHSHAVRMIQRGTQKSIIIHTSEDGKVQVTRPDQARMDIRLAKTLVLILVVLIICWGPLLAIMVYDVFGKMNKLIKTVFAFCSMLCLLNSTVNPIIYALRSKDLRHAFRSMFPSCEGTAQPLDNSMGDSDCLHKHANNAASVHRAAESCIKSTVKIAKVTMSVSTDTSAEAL

| IC50 [µM] | SMILES |
| --- | --- |
| ≥ 25 | CS(=O)(=O)c1cc2c(c(S(=O)(=O)Nc3cccc(F)c3)c1)OCC(=O)N2 [BC19426] |
| 1 to 25 | CCC1Oc2cc(S(=O)(=O)Nc3ccc(F)cc3)c(Cl)cc2NC1=O (centres unmarked) [BC19731] |
| ≥ 25 | O=C1CCOc2cc(S(=O)(=O)Nc3ccc(Cl)cc3)c(Br)cc2N1 [BC19656] |
| ≥ 25 | CC(C)NS(=O)(=O)c1cc2c(cc1Cl)NC(=O)C(C)O2 (centres unmarked) [BC19207] |
| ≥ 25 | CC1Oc2c(cc(Cl)cc2S(=O)(=O)Nc2cccc(F)c2)NC1=O (centres unmarked) [BC19714] |
| ≥ 25 | Cc1ccc(NS(=O)(=O)c2cc(S(C)(=O)=O)cc3c2OCC(=O)N3)cc1Cl [BC19486] |
| ≥ 25 | CC1Oc2cc(S(=O)(=O)NCc3ccc(F)cc3F)c(Br)cc2NC1=O (centres unmarked) [BC19356] |
| < 1 | CCC1Oc2cc(S(=O)(=O)Nc3ccc(C(C)C)cc3)c(Cl)cc2NC1=O (centres unmarked) [BC19210] |
| ≥ 25 | CCS(=O)(=O)c1cc2c(c(S(=O)(=O)Nc3ccc(C)cc3)c1)OCC(=O)N2 [BC19546] |
| 1 to 25 | CCCNS(=O)(=O)c1cc2c(cc1Br)NC(=O)C(CC)O2 (centres unmarked) [BC19222] |
| 1 to 25 | CC1Oc2cc(S(=O)(=O)Nc3ccc(F)cc3Cl)c(Br)cc2NC1=O (centres unmarked) [BC19285] |
| ≥ 25 | CCOc1ccc(NS(=O)(=O)c2cc(Br)cc3c2OCC(=O)N3)cc1 [BC19173] |
| ≥ 25 | CC1Oc2c(cc(Br)cc2S(=O)(=O)NC2CCC(C(C)(C)C)CC2)NC1=O (centres unmarked) [BC19367] |
| ≥ 25 | CCC1Oc2cc(S(=O)(=O)Nc3ccc(C(F)(F)F)cc3Cl)c(Br)cc2NC1=O (centres unmarked) [BC19371] |
| ≥ 25 | O=C1NCCOc2c1cc(Br)cc2S(=O)(=O)Nc1ccc(F)cc1 [BC19549] |
| 1 to 25 | CC1Oc2c(cc(Cl)cc2S(=O)(=O)Nc2ccc(C#N)cc2)NC1=O (centres unmarked) [BC19730] |
| ≥ 25 | Cc1c(Cl)cc2c(c1S(=O)(=O)Nc1ccc(F)c(F)c1)OCC(=O)N2 [BC19489] |
| ≥ 25 | Cc1ccc(NS(=O)(=O)c2c(C)c(Cl)cc3c2OCC(=O)N3)cc1 [BC19432] |
| 1 to 25 | CC(C)CC1Oc2c(cc(Br)cc2S(=O)(=O)Nc2ccc(F)c(F)c2)NC1=O (centres unmarked) [BC19759] |
| 1 to 25 | CCC1Oc2c(cc(Br)cc2S(=O)(=O)Nc2ccc(OC(F)(F)F)cc2)N(C)C1=O (centres unmarked) [BC19921] |
| 1 to 25 | CCc1ccc(NS(=O)(=O)c2cc(Br)cc3c2OCCC(=O)N3)cc1 [BC19686] |
| ≥ 25 | Cc1ccc(NS(=O)(=O)c2cc3c(cc2Br)N(C)C(=O)C(C)O3)cc1 (centres unmarked) [BC19912] |

| IC50 [µM] | SMILES |
| --- | --- |
| 1 to 25 | CCc1cccc(NS(=O)(=O)c2cc(Br)cc3c2OC(C)C(=O)N3)c1 (centres unmarked) [BC19288] |
| ≥ 25 | CCC1Oc2c(cc(Br)cc2S(=O)(=O)Nc2ccc(OC)cc2)N(C)C1=O (centres unmarked) [BC19935] |
| ≥ 25 | CC(C)CC1Oc2cc(S(=O)(=O)Nc3ccc(OC(F)(F)F)cc3)c(Br)cc2NC1=O (centres unmarked) [BC19758] |
| ≥ 25 | Cc1ccc(NS(=O)(=O)c2cc(S(C)(=O)=O)cc3c2OCC(=O)N3)cc1 [BC19488] |
| ≥ 25 | CC1Oc2cc(S(=O)(=O)Nc3cccc(Cl)c3)c(Br)cc2N(C)C1=O (centres unmarked) [BC19905] |
| 1 to 25 | Cc1ccc(NS(=O)(=O)c2cc3c(cc2Cl)NC(=O)CO3)cc1Cl [BC19165] |
| ≥ 25 | CS(=O)(=O)c1cc2c(c(S(=O)(=O)Nc3ccc(C#N)cc3)c1)OCC(=O)N2 [BC19431] |
| ≥ 25 | O=C1NCCOc2c1cc(Br)cc2S(=O)(=O)Nc1ccc(F)c(F)c1 [BC19551] |
| ≥ 25 | O=C1CCOc2cc(S(=O)(=O)Nc3ccc(F)cc3Cl)c(Br)cc2N1 [BC19658] |
| ≥ 25 | CC1Oc2cc(S(=O)(=O)Nc3ccccc3)c(Cl)cc2NC1=O (centres unmarked) [BC19206] |
| ≥ 25 | N#Cc1ccc(NS(=O)(=O)c2cc3c(cc2Br)NC(=O)CCO3)cc1 [BC19695] |
| 1 to 25 | CC1Oc2c(cc(Br)cc2S(=O)(=O)NCc2ccc(C(F)(F)F)cc2)NC1=O (centres unmarked) [BC19365] |
| ≥ 25 | CC(C)c1ccc(NS(=O)(=O)c2cc(Br)cc3c2OCCC(=O)N3)cc1 [BC19687] |
| ≥ 25 | CC(C)CC1Oc2cc(S(=O)(=O)Nc3ccc(C(C)C)cc3)c(Br)cc2NC1=O (centres unmarked) [BC19766] |
| ≥ 25 | Cc1ccc(NS(=O)(=O)c2cc3c(cc2Br)NC(=O)CCO3)cc1Cl [BC19659] |
| 1 to 25 | O=C1COc2c(cc(Cl)cc2S(=O)(=O)Nc2ccccc2)N1 [BC19168] |
| ≥ 25 | O=C1COc2c(cc(Br)cc2S(=O)(=O)Nc2ccc(C(F)(F)F)cc2Cl)N1 [BC19384] |
| ≥ 25 | CC1Oc2c(cc(Br)cc2S(=O)(=O)Nc2ccc(F)cc2)N(C)C1=O (centres unmarked) [BC19911] |
| ≥ 25 | CC(C)CC1Oc2cc(S(=O)(=O)Nc3ccc(F)cc3F)c(Br)cc2NC1=O (centres unmarked) [BC19770] |
| 1 to 25 | CC1C(=O)Nc2ccc(S(=O)(=O)N3CCCC3)cc2N1C (centres unmarked) [BC19296] |
| 1 to 25 | CC(C)CC1Oc2c(cc(Br)cc2S(=O)(=O)Nc2ccccc2)NC1=O (centres unmarked) [BC19761] |
| 1 to 25 | CCc1cccc(NS(=O)(=O)c2cc(Br)cc3c2OC(CC)C(=O)N3C)c1 (centres unmarked) [BC19915] |

| IC50 [µM] | SMILES |
| --- | --- |
| ≥ 25 | CC(C)CC1Oc2c(cc(Br)cc2S(=O)(=O)Nc2ccc(OC(F)(F)F)cc2)NC1=O (centres unmarked) [BC19757] |
| ≥ 25 | CCS(=O)(=O)c1cc2c(c(S(=O)(=O)Nc3ccc(OC)cc3)c1)OCC(=O)N2 [BC19438] |
| 1 to 25 | COc1ccc(NS(=O)(=O)c2cc(Cl)cc3c2OC(C)C(=O)N3)cc1Cl (centres unmarked) [BC19292] |
| 1 to 25 | CC1Oc2cc(S(=O)(=O)NC3CCC(C(C)(C)C)CC3)c(Br)cc2NC1=O (centres unmarked) [BC19361] |
| ≥ 25 | CCc1ccc(NS(=O)(=O)c2cc(Br)cc3c2OC(CC)C(=O)N3C)cc1 (centres unmarked) [BC19931] |
| ≥ 25 | CCC1Oc2cc(S(=O)(=O)Nc3ccc(OC(F)(F)F)cc3)c(Br)cc2N(C)C1=O (centres unmarked) [BC19922] |
| ≥ 25 | CS(=O)(=O)c1cc2c(c(S(=O)(=O)Nc3ccc(F)cc3F)c1)OCC(=O)N2 [BC19425] |
| ≥ 25 | CC1Oc2cc(S(=O)(=O)Nc3ccc(Cl)cc3)c(Br)cc2N(C)C1=O (centres unmarked) [BC19792] |
| 1 to 25 | CC1Oc2cc(S(=O)(=O)Nc3ccccc3)c(Br)cc2N(C)C1=O (centres unmarked) [BC19790] |
| ≥ 25 | CS(=O)(=O)c1cc2c(c(S(=O)(=O)Nc3ccc(OC(F)(F)F)cc3)c1)OCC(=O)N2 [BC19422] |
| < 1 | CC(=O)N1c2cc(S(=O)(=O)N3CCCC3)ccc2NC(=O)C1C (centres unmarked) [BC19182] |
| ≥ 25 | CC1Oc2cc(S(=O)(=O)Nc3ccc(OC(F)(F)F)cc3)c(Br)cc2N(C)C1=O (centres unmarked) [BC19784] |
| 1 to 25 | CCC1Oc2cc(S(=O)(=O)Nc3ccc(OC(F)(F)F)cc3)c(Cl)cc2NC1=O (centres unmarked) [BC19733] |
| 1 to 25 | CC(C)CC1Oc2c(cc(Br)cc2S(=O)(=O)Nc2cccc(F)c2)NC1=O (centres unmarked) [BC19773] |
| < 1 | COc1ccc(NS(=O)(=O)c2cc3c(cc2Br)NC(=O)CCO3)cc1 [BC19692] |
| 1 to 25 | Cc1ccc(NS(=O)(=O)c2cc3c(cc2Cl)NC(=O)C(C)O3)cc1F (centres unmarked) [BC19700] |
| 1 to 25 | CCC1Oc2cc(S(=O)(=O)NCc3ccccc3)c(Br)cc2NC1=O (centres unmarked) [BC19287] |
| ≥ 25 | CCc1ccc(NS(=O)(=O)c2cc(S(=O)(=O)CC)cc3c2OCC(=O)N3)cc1 [BC19492] |
| ≥ 25 | CCc1cccc(NS(=O)(=O)c2cc3c(cc2Cl)NC(=O)C(C)O3)c1 (centres unmarked) [BC19711] |
| ≥ 25 | CC1C(=O)Nc2ccc(S(=O)(=O)N3CCCC3)cc2N1C(=O)N1CCOCC1 (centres unmarked) [BC19297] |
| ≥ 25 | CCC1Oc2cc(S(=O)(=O)Nc3cccc(SC)c3)c(Cl)cc2NC1=O (centres unmarked) [BC19213] |
